Experimental data from patent US20250230193A1, “CYCLIC COMPOUND HAVING SELECTIVE KRAS INHIBITORY EFFECT ON HRAS AND NRAS” (CHUGAI SEIYAKU KABUSHIKI KAISHA, priority 2022, published 2025).
*1 amine or outer side, *2 acyl side, *3 side chain or, on linkers, in order; H or OH if unused. Where a SMILES comes first, the peptide text is derived from it. Bridges are numbered along the chain shown (N, C = ends). [ ]: non-standard residue; d: D form. The star is where a group is joined. hPhe(3,5-F2-4-CF3) = N[C@@H](CCc1cc(F)c(C(F)(F)F)c(F)c1)C(=O)O; hPhe(3-Cl-4-CF3) = N[C@@H](CCc1ccc(C(F)(F)F)c(Cl)c1)C(=O)O; NPrPhe(4-CF3) = CCCN[C@@H](Cc1ccc(C(F)(F)F)cc1)C(=O)O; X27 = Cc1ccc(C[C@@H](C(=O)[*:2])N(CC2CCCCC2)[*:1])cc1; NMeGly(cPent) = CN[C@H](C(=O)O)C1CCCC1; NMeNva(3-Et) = CCC(CC)[C@H](NC)C(=O)O; NMeD = CN[C@@H](CC(=O)O)C(=O)O; NMeL = CN[C@@H](CC(C)C)C(=O)O; αMeS = C[C@](N)(CO)C(=O)O; Morpholide = C1CN(*)CCO1; NMeA = CN[C@@H](C)C(=O)O; Ac5c = NC1(C(=O)O)CCCC1; Aze = O=C(O)[C@@H]1CCN1; Ac4c = NC1(C(=O)O)CCC1; Sar = CNCC(=O)O

Tests used:
[1] = target: GDP-bound NRAS wild-type protein (Homo sapiens, UniProt P01111); test: Binding to NRAS by surface plasmon resonance (SPR), Single Cycle Kinetics; conditions: SPR; for NRAS/KRAS (ratio of KD value for NRAS to KD value for KRAS) / NRAS/KRAS (ratio of KD value with respect to NRAS to KD value with respect to KRAS): GDP-bound NRAS wild-type vs GDP-bound KRAS wild-type
[2] = target: GDP-bound HRAS wild-type protein (Homo sapiens, UniProt P01112); test: Binding to HRAS by surface plasmon resonance (SPR), Single Cycle Kinetics; conditions: SPR; for HRAS/KRAS (ratio of KD value for HRAS to KD value for KRAS) / HRAS/KRAS (ratio of KD value with respect to HRAS to KD value with respect to KRAS): GDP-bound HRAS wild-type vs GDP-bound KRAS wild-type
GDP-bound HRAS wild-type protein, sequence (P01112 whole entry): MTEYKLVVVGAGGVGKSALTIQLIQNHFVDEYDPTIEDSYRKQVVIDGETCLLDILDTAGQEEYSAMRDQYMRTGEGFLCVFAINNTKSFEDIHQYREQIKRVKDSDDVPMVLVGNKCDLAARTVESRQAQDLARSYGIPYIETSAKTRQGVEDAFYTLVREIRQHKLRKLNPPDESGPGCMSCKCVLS

GDP-bound NRAS wild-type protein, sequence (P01111 whole entry): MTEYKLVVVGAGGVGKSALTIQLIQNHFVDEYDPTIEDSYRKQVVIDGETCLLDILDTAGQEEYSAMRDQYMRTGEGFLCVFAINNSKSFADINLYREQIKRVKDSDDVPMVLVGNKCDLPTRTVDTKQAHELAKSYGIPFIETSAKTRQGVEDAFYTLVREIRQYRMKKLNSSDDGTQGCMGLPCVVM

Question: `CCCN1C(=O)CN(C)C(=O)CN(C)C(=O)[C@H]([C@@H](C)CC)NC(=O)[C@H](CC(C)C)N(C)C(=O)C[C@@H](C(=O)N(C)C)N(C)C(=O)[C@H](C2CCCC2)N(C)C(=O)[C@](C)(COC)NC(=O)[C@@H]2CCCN2C(=O)[C@H](CCc2cc(F)c(C(F)(F)F)c(F)c2)NC(=O)CN(C)C(=O)[C@@H]1Cc1ccc(C(F)(F)F)cc1` [PP0741] ([NMeL]I[Sar][Sar][NPrPhe(4-CF3)][Sar][hPhe(3,5-F2-4-CF3)]P[αMeS](Me)[NMeGly(cPent)][NMeD]-NMe2; lactam N-11) was tested. Which “NRAS/KRAS (ratio of KD value with respect to GDP-bound NRAS wild-type protein to KD value with respect to KRAS)” value ([1]; KD ratio NRAS/KRAS) did it give?
Answer: Its value is “B (a compound having 3 or more and less than 10 is denoted as B)”.

Question: And the “HRAS/KRAS (ratio of KD value with respect to GDP-bound HRAS wild-type protein to KD value with respect to KRAS)” value ([2]; KD ratio HRAS/KRAS)?
Answer: The value was “B (a compound having 3 or more and less than 10 is denoted as B)”.

Question: Which “NRAS/KRAS (ratio of KD value for NRAS to KD value for KRAS)” value ([1]; KD ratio) does the source give for `CC[C@H](C)[C@@H]1NC(=O)[C@H](CC(C)C)N(C)C(=O)C[C@@H](C(=O)N(C)C)N(C)C(=O)[C@H](C2CCCC2)N(C)C(=O)C2(CCC2)NC(=O)[C@@H]2C[C@H](C)CN2C(=O)[C@H](CCc2ccc(C(F)(F)F)c(OC)c2)NC(=O)CN(C)C(=O)[C@H](Cc2ccc(C)cc2)N2CC/C=C\C[C@@H](C2=O)N(C)C(=O)CN(C)C1=O` [PP1865] here?
Answer: The value was “A (a compound having 10 or more and less than 20 is denoted as A)”.

Question: What about the “HRAS/KRAS (ratio of KD value for HRAS to KD value for KRAS)” value ([2]; KD ratio) of the same compound?
Answer: The value was “B (a compound having 3 or more and less than 10 is denoted as B)”.

Question: Which results are given for `CCO[C@@H]1C[C@H]2C(=O)NC3(CCC3)C(=O)N(C)[C@@H](C(C)(C)C)C(=O)N(C)[C@H](C(=O)N3CCOCC3)CC(=O)N(C)[C@@H](CC(C)C)C(=O)N[C@@H]([C@@H](C)CC)C(=O)N(C)CC(=O)N(C)[C@H]3CCCCN(C3=O)[C@@H](Cc3ccc(C(F)(F)F)cc3)C(=O)N(C)CC(=O)N[C@@H](CCc3cc(F)c(C(F)(F)F)c(F)c3)C(=O)N2C1` [PP0814]?
Answer: NRAS/KRAS (ratio of KD value with respect to NRAS to KD value with respect to KRAS) ([1]; KD ratio): B (a compound having 3 or more and less than 10 is denoted as B); HRAS/KRAS (ratio of KD value with respect to HRAS to KD value with respect to KRAS) ([2]; KD ratio): B (a compound having 3 or more and less than 10 is denoted as B)

Question: Which results are given for `CCCN1C(=O)[C@@H]2CCN2C(=O)[C@H](C)N(C)C(=O)[C@H]([C@@H](C)CC)NC(=O)[C@H](CC(C)C)N(C)C(=O)C[C@@H](C(=O)N(C)C)N(C)C(=O)[C@H](C(CC)CC)N(C)C(=O)C2(CCC2)NC(=O)[C@@H]2CCCN2C(=O)[C@H](CCc2ccc(C(F)(F)F)c(Cl)c2)NC(=O)CN(C)C(=O)[C@@H]1Cc1ccc(C(F)(F)F)cc1` [PP1961] ([NMeL]I[NMeA][Aze][NPrPhe(4-CF3)][Sar][hPhe(3-Cl-4-CF3)]P[Ac4c][NMeNva(3-Et)][NMeD]-NMe2; lactam N-11)?
Answer: NRAS/KRAS (ratio of KD value for NRAS to KD value for KRAS) ([1]; KD ratio): C (A compound having a KD ratio of 0.1 or more and less than 3 is denoted as C); HRAS/KRAS (ratio of KD value for HRAS to KD value for KRAS) ([2]; KD ratio): C (A compound having a KD ratio of 0.1 or more and less than 3 is denoted as C)

Question: With `CCOC[C@H]1C(=O)N[C@@H]([C@@H](C)CC)C(=O)N(C2CC2)CC(=O)N(C)[C@H]2C/C=C\CCN(C2=O)[C@@H](CC2CCCCC2)C(=O)N(C)CC(=O)N[C@@H](CCc2ccc(C(F)(F)F)c(OC)c2)C(=O)N2C[C@@H](C)C[C@H]2C(=O)N(C)C2(CCC2)C(=O)N(C)[C@@H](C2CCCC2)C(=O)N(C)[C@H](C(=O)N(C)C)CC(=O)N1C` [PP2373] as the compound, how does the “NRAS/KRAS (ratio of KD value with respect to NRAS to KD value with respect to KRAS)” value [1] read?
Answer: The value was “A (a compound having 10 or more and less than 20 is denoted as A)”.

Question: What about the “HRAS/KRAS (ratio of KD value with respect to HRAS to KD value with respect to KRAS)” value [2] of the same compound?
Answer: The value was “A (a compound having 10 or more and less than 20 is denoted as A)”.

Question: For `CC[C@H](C)[C@@H]1NC(=O)[C@H](CC(C)C)N(C)C(=O)C[C@@H](C(=O)N2CCOCC2)N(C)C(=O)[C@H](C2CCCC2)N(C)C(=O)C2(CCCC2)NC(=O)[C@@H]2CCCN2C(=O)[C@H](CCc2ccc(C(F)(F)F)c(Cl)c2)NC(=O)CN(C)C(=O)[C@H](Cc2ccc(C)cc2)N(CC2CCCCC2)C(=O)[C@@H]2CCN2C(=O)[C@H](C)N(C)C1=O` [PP0085] ([NMeL]I[NMeA][Aze][X27][Sar][hPhe(3-Cl-4-CF3)]P[Ac5c][NMeGly(cPent)][NMeD]-Morpholide; lactam N-11), which “NRAS/KRAS (ratio of KD for GDP-bound NRAS wild-type to KD for KRAS)” value ([1]; KD ratio NRAS/KRAS) is on record?
Answer: Its value is “C (A compound having a KD ratio of 0.1 or more and less than 3 is denoted as C)”.

Question: What about the “HRAS/KRAS (ratio of KD for GDP-bound HRAS wild-type to KD for KRAS)” value ([2]; KD ratio HRAS/KRAS) of the same compound?
Answer: Its value is “C (A compound having a KD ratio of 0.1 or more and less than 3 is denoted as C)”.

Question: What does the source list for `CCOC[C@H]1C(=O)N[C@@H]([C@@H](C)CC)C(=O)N(C)CC(=O)N(C)[C@H]2C/C=C\CCN(C2=O)[C@@H](Cc2ccc(C)cc2)C(=O)N(C)CC(=O)N[C@@H](CCc2cc(F)c(C(F)(F)F)c(F)c2)C(=O)N2C[C@@H](C)C[C@H]2C(=O)NC2(CC(C)(C)C2)C(=O)N(C)[C@@H](C2CCCC2)C(=O)N(C)[C@H](C(=O)N(CC)CC)CC(=O)N1C` [PP2407]?
Answer: NRAS/KRAS (ratio of KD value with respect to NRAS to KD value with respect to KRAS) [1]: A (a compound having 10 or more and less than 20 is denoted as A); HRAS/KRAS (ratio of KD value with respect to HRAS to KD value with respect to KRAS) [2]: A (a compound having 10 or more and less than 20 is denoted as A)
